Data on 3 molecules can be found in article PMC10096453, “One-Pot Synthesis and Evaluation of Antioxidative Stress and Anticancer Properties of an Active Chromone Derivative” (Molecules, 2023).

Data set [1] in a line: DPPH radical scavenging assay. Also noted: DPPH517nm % SA ± SD: dose or concentration left out as unconfirmed. Type of data set: biochemical. The settings on record: for DPPH517nm % SA ± SD: mean of three measurements; for EC50: read-out: DPPH517nm EC50 ± SD. The text has this:
(§1) Three in vitro antioxidant assays (DPPH, FRAP, and ABTS) were utilized to evaluate the antioxidant property of the synthesized compounds. The DPPH (α, α-diphenyl-β-picrylhydrazyl) assay is the well-known approach to determine antioxidant activity using a stable free radical DPPH, measure the absorbance change, and calculate the absorbance change in the percentage of scavenging activity. […] For example, the ferric-tripyridyltriazine (Fe^3+-TPTZ, colorless) complex is reduced to ferrous tripyridyltriazine (Fe^2+-TPTZ) at low pH and introduces a blue color with maximum absorption at 593 nm. The change in absorbance is related to antioxidant activity. However, a significant limitation of these in vitro tests is the non-physiological measurement conditions (no enzymatic condition and no transition metal ion chelating activity); therefore, the results obtained may not reflect the antioxidant activity of the source material under the biological conditions that exist in humans and animals. The ABTS assay involves a more drastic radical that is chemically produced. The use of ABTS for antioxidant activity determination of hydrophilic and lipophilic pure compounds has attracted interest due to its solubility in organic and aqueous media and stability in a wide pH range [31].
The DPPH method was followed and modified from a previous study. Trolox was used as a reference. The DPPH stock solution at a concentration of 0.625 mM was prepared in 50% ethanol and kept at 4 °C in the dark. On the day of the experiment, 0.208 mM fresh DPPH working solution was freshly prepared by further diluting with 50% ethanol. […] Each reaction was carried out in a 96-well plate, and 100 μL of test preparation and DPPH solution were added. The 96-well plate was then shaken well for 10 min and kept in the dark at room temperature for 20 min, and the absorbance was recorded at 515–517 nm. According to the method described, delocalization also results in a deep violet color and is quantified as a percentage of scavenging activity. % scavenging activity (SA) = 100 × (Asample − Ablank)/(Acontrol − Ablank)(1) where Acontrol and Asample are the absorbances of the test DPPH without and with a sample, respectively. Ablank is the absorbance of the solvent used. The EC50 values were calculated from the relationship curve of %SA versus sample concentration. The experiment was carried out at least in triplicate.
On the technique in general: The DPPH test is a chemical assay of radical scavenging.

Data set [2] is described as follows: MTT cytotoxicity assay, HEK293 cells. Type of data set: cell-based. As to conditions: human, HEK293 cells, 100 μM; for viability at 24 h, 100 µM: read-out: % Viability ± SD (at 100 μM) HEK293 24 h; for viability at 48 h, 100 µM: read-out: % Viability ± SD (at 100 μM) HEK293 48 h. The procedure:
(§2) HEK293, HACAT, and HeLa cells were grown in modified Eagles’ minimum essential medium (EMEM, Gibco) with 10% fetal bovine serum (FBS, Gibco), 1% of 100 U/mL streptomycin and 100 U/mL penicillin (Gibco). Cells were seeded in culture flasks and maintained in an incubator at 37 °C in a humidified atmosphere with 5% CO2. After reaching 80–90% of confluence, cells were detached by incubation with 0.25% trypsin-0.2% EDTA (Gibco) for 5 min and plated for experiments.
(§3) This study examined cell cultures of HEK293, HACAT, and HeLa cells. The cytotoxicity of the test samples was carried out by the MTT (3-(4,5-dimethylthiazol-2-yl)-2,5-diphenyltetrazolium bromide) assay. The cells were seeded in 96-well microliter plates (2.0 × 10^4 cells/well). Stock solutions of the test compounds were prepared in DMSO. After 24 h, cells were treated with different concentrations of samples and diluted with media to obtain the final desired concentration. The treated cells were then incubated at 37 °C and 5% CO2 for 24 and 48 h. After incubation, the medium was replaced with 0.05% w/v of MTT solution in PBS and further incubated for 3 h. The solution was then discarded and DMSO was added to dissolve the formed formazan crystals. Each well’s absorbance (A) was measured at 570 nm using a microplate reader (FLUOstar Omega^TM, BMG Labtech, Ortenberg, Germany). All experiments were carried out in triplicate and repeated for at least three experiments.

A short description of data set [3]: ABTS radical cation scavenging assay. Format: biochemical. The settings on record: for EC50: read-out: ABTS734nm EC50 ± SD.
Excerpt: as §1
The ABTS assay was prepared by reaction of 5 mL of a 7 mM aqueous ABTS (2,2′-azino-bis (3-ethylbenzthiazoline-6-sulphonic acid) solution and 2.45 mM potassium persulfate solution (K2S2O8). After preparation and storage in the dark for 16 h, the radical cation solution was further diluted in ethanol to absorb about 0.7 at 734 nm. Trolox and test sample solutions were prepared in stock solution with DMSO and diluted with ethanol. A solution of 100 μL of the sample was mixed with 100 μL of the ABTS reagent in a 96-well plate. The mixture was shaken in a dark place for 10 min and incubated at 37 °C for 20 min, and the absorbance was determined at 734 nm. Absorbance determinations were recorded immediately and not more than 1 h after adding the reagent. The solution without the sample was used as a blank. All the determinations were made in triplicate. The sample’s scavenging percentage was calculated from this equation: scavenging percentage = (Absorbance control − Absorbance sample) × 100/Absorbance control. EC50 values were calculated from the relationship curve of %scavenging versus sample concentration.

Data set [4] deals with HeLa cell. The experiment in a line: MTT anticancer activity assay, HeLa cells. Format: cell-based. The settings on record: for Anticancer activity on cervical cancer cells / IC50: HeLa; for IC50 / viability at 100 µM: Homo sapiens. On the procedure:
as §2, §3
On the technique in general: Formazan colour is commonly taken as a measure of viable cells.

The subject of data set [5] is HEK293 cells. Briefly: Protection against H2O2-induced cytotoxicity (MTT). As to conditions: 100 μM; HEK293, 7.5 mM H2O2 30 min. Format: cell-based. The procedure: The synthesized compounds were examined for the ability of the compounds to protect cells exposed to oxidative stress. Six active compounds from the antioxidant test, 2b, 2d, 2e, 2f, 2j, and 3i, were selected to study the ability of oxidative stress protection. The HEK293 cells were treated with 7.5 mM hydrogen peroxide for 30 min; samples and quercetin were added, and cell viability was investigated at 12 and 24 h treatment. The percentage of viable cells in each sample was calculated using the untreated cell as 100% survival (Figure 3).
Figure 3 Protective effect of synthesized compounds on H2O2-induced cytotoxicity in cultured HEK cells (means ± SD, n = 3). Data (cell viability, measured by the MTT assay) were expressed as a percentage of the control group, which is 100%. The results were calculated from three independent experiments and are shown as mean ± SD. Compared to the H2O2 model group, the p values were calculated using a one-way ANOVA with Tukey (Turkey HSD) multiple comparison analysis; * p < 0.05 at 12 h treatment, # p < 0.05 at 24 h treatment.

[6] abbreviates: 24 h, read-out: % Viability ± SD (at 100 μM) HeLa 24 h.
Setting [7] is: 48 h, read-out: % Viability ± SD (at 100 μM) HeLa 48 h.

Read-outs that look alike come from different tables or passages of the source. Some results are limits rather than exact numbers.

In general, EC50 refers to the concentration giving half of the maximal effect. The viability is a read-out of living cells in per cent, often relative to untreated cells. As usually defined, the IC50 is the midpoint of a concentration-inhibition curve.

In the case of `O=C(c1ccccc1)c1c(-c2ccccc2)oc2c(O)c(O)ccc2c1=O` [2f, 3-Benzoyl-7,8-dihydroxy-2-phenyl-4H-chromen-4-one], in data set [1], the “DPPH517nm % SA ± SD” value turned out to be 93.55 ± 3.20% and the EC50 was 34.1 ± 3.28 µM. Besides, in data set [2], the viability at 24 h, 100 µM is 105 ± 1.19% and the viability at 48 h, 100 µM worked out at 74.7 ± 0.83%. In data set [3], the “ABTS734nm % Scavenging at 500 µM” value is 81.63 ± 1.80% and the EC50 amounted to 10.2 ± 0.7 µM. Moreover, in data set [4] (24 h), the “Anticancer activity on cervical cancer cells” value was “contained anticancer activity” and half-maximal inhibition (IC50) required 191 ± 6.01 µM. For the same molecule, the viability at 100 µM in data set [4] (setting [6]) came out at 109.3 ± 0.92%. The viability at 100 µM in data set [4] (setting [7]) worked out at 29.2 ± 0.4%. Moreover, the “Protection of cells from oxidative stress” value in data set [5] was “able to protect cells from oxidative stress”.

On to `O=C(Oc1ccc2c(=O)c(C(=O)c3ccccc3)c(-c3ccccc3)oc2c1O)c1ccccc1` [2j, 3-Benzoyl-8-hydroxy-4-oxo-2-phenyl-4H-chromen-7-yl benzoate], for which, in data set [1], the “DPPH517nm % SA ± SD” value is given as 92.88 ± 0.46% and the EC50 was determined as 49.9 ± 11 µM. In data set [2], the viability at 24 h, 100 µM was 96 ± 2.62% and the viability at 48 h, 100 µM came out at 71.6 ± 5.19%. In data set [3], the “ABTS734nm % Scavenging at 500 µM” value is listed as more than 95% and the EC50 is 22.2 ± 0.39 µM. In data set [4] (24 h), the “Anticancer activity on cervical cancer cells” value was “contained anticancer activity” and inhibition was half-maximal at 101 ± 3.18 µM (IC50). Moreover, the viability at 100 µM in data set [4] (setting [6]) was 65.2 ± 1.42%. Further, the viability at 100 µM in data set [4] (setting [7]) came out at 30 ± 1.23%. Moreover, the “Protection of cells from oxidative stress” value in data set [5] is “able to protect cells from oxidative stress”.

As for `O=c1c(O)c(-c2ccc(O)c(O)c2)oc2cc(O)cc(O)c12` [Quercetin, quercetin, reference compound], in data set [1], the “DPPH517nm % SA ± SD” value is 93.89 ± 2.04% and the EC50 was determined as 18.3 ± 5.62 µM. In addition, in data set [2], the viability at 24 h, 100 µM was 102 ± 1.58% and the viability at 48 h, 100 µM turned out to be 86.6 ± 4.66%. In data set [3], the “ABTS734nm % Scavenging at 500 µM” value amounted to 88.51 ± 0.80% and the concentration for a half-maximal effect (EC50) came out at 11.4 ± 0.17 µM. For the same molecule, inhibition in data set [4] (24 h) was half-maximal at 192.4 ± 1.27 µM (IC50). Further, the viability at 100 µM in data set [4] (setting [6]) was 69.1 ± 1.93%. For the same molecule, the viability at 100 µM in data set [4] (setting [7]) amounted to 19.2 ± 0.25%.
